US6461997B1, “Triazole sulfones having herbicidal activity” (Monsanto Technology LLC, priority 1999, dated 2002)

Columns and labels:
[1] = system: CHEAL (common lambsquarters); experiment: Pre-emergence herbicidal activity, warm season; type: in vivo, Chenopodium album; settings: GR80 = lowest tested rate (300, 100, 30, 10 g/ha) with 80% or greater inhibition; approx. 14 days after treating; 30/21° C.
Summary of the method: (§1)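 Seeds sown in sterilised fertilised topsoil received surface-applied compound in 50:50 acetone/water, typically at 300, 100, 30 and 10 g/ha, then greenhouse-grown at 30/21° C (warm-season species) or 18/13° C (cool-season species). Percent inhibition versus untreated plants was scored at about 14 days, giving GR80; an asterisk marks activity short of 80% at the top rate.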

SORVU (shattercane) [2] = experiment: Pre-emergence herbicidal activity, warm season; type: in vivo, Sorghum vulgare; settings: GR80 = lowest tested rate (300, 100, 30, 10 g/ha) with 80% or greater inhibition; approx. 14 days after treating; 30/21° C.
Summary of the method: as §1

ABUTH (velvetleaf) = experiment: Pre-plant incorporated (PPI) herbicidal activity, warm season; type: in vivo, Abutilon theophrasti
Summary of the method: (§2)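 PPI simulation: compound in organic solvent sprayed onto weighed cover soil, mixed thoroughly, spread over seeds. Controls: untreated cover soil. 0.64 cm overhead irrigation, then mist/subirrigation. Day/night 30/21° C (warm) or 18/13° C (cool). Read-out ~14 d, % inhibition vs untreated.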

DATST (jimsonweed) = experiment: as above; type: in vivo, Datura stramonium
Summary of the method: as §2

SORVU (shattercane) [3] = experiment: as above; type: in vivo, Sorghum vulgare
Summary of the method: as §2

DIGSA (large crabgrass) = experiment: as above; type: in vivo, Digitaria sanguinalis
Summary of the method: as §2

STEME (common chickweed) = experiment: Pre-plant incorporated (PPI) herbicidal activity, cool season; type: in vivo, Stellaria media; settings: pre-plant incorporated; lowest tested rate with 80% or greater inhibition; about 14 days
Summary of the method: as §2

[4] = system: AEGCY (jointed goatgrass); experiment: as above; type: in vivo, Aegilops cylindrica
Summary of the method: as §2

POAAN (annual bluegrass) = experiment: as above; type: in vivo, Poa annua; settings: Poa annua, weed, PPI application, read-out: Percent inhibition POAAN
Summary of the method: as §2

oilseed rape (BRSNS) = experiment: Selectivity test, PPI, cool season crop; type: in vivo, Brassica napus; settings: Brassica napus, PPI application, read-out: Percent inhibition BRSNS
Summary of the method: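 Pre-plant incorporated: compound in organic solvent sprayed onto cover soil, mixed and laid over seeds; untreated soil for controls. Greenhouse after treatment: warm season 30/21° C., cool season 18/13° C. day/night. Percent inhibition versus untreated plants scored about 14 days after planting.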

[5] = pre-plant incorporated, GR80 = lowest tested rate with 80% or greater inhibition, approx. 14 days after treating, 30/21° C.
[6] = pre-plant incorporated, lowest tested rate with 80% or greater inhibition, about 14 days

For C=C(C)CC(F)(F)S(=O)(=O)c1ncn(C(=O)N(CC)CC)n1 [Example 18], the “Pre-emergence activity (GR80) CHEAL” value [1] was 300 g/ha, the “Pre-emergence activity (GR80) SORVU” value (SORVU (shattercane) [2]) was “* (activity observed, at least at highest rate, but <80% inhibition)” and the inhibition at 10 g/ha (ABUTH (velvetleaf); Abutilon theophrasti, PPI application, 10 g/ha, read-out: Percent inhibition ABUTH) was 0%. It also gave an inhibition at 30 g/ha (ABUTH (velvetleaf); Abutilon theophrasti, PPI application, 30 g/ha, read-out: Percent inhibition ABUTH) of 0%, an inhibition at 100 g/ha (ABUTH (velvetleaf); Abutilon theophrasti, PPI application, 100 g/ha, read-out: Percent inhibition ABUTH) of 0% and an inhibition at 300 g/ha (ABUTH (velvetleaf); Abutilon theophrasti, PPI application, 300 g/ha, read-out: Percent inhibition ABUTH) of 70%. For the same compound, the inhibition at 900 g/ha (ABUTH (velvetleaf); Abutilon theophrasti, PPI application, 900 g/ha, read-out: Percent inhibition ABUTH) was 90%, the “PPI activity (GR80) ABUTH” value (ABUTH (velvetleaf); [5]) was 100 g/ha and the inhibition at 10 g/ha (DATST (jimsonweed); Datura stramonium, PPI application, 10 g/ha, read-out: Percent inhibition DATST) was 0%. For the same compound, the inhibition at 30 g/ha (DATST (jimsonweed); Datura stramonium, PPI application, 30 g/ha, read-out: Percent inhibition DATST) was 0%, the inhibition at 100 g/ha (DATST (jimsonweed); Datura stramonium, PPI application, 100 g/ha, read-out: Percent inhibition DATST) was 0% and the inhibition at 300 g/ha (DATST (jimsonweed); Datura stramonium, PPI application, 300 g/ha, read-out: Percent inhibition DATST) was 60%. The inhibition at 900 g/ha (DATST (jimsonweed); Datura stramonium, PPI application, 900 g/ha, read-out: Percent inhibition DATST) was 100%, the “PPI activity (GR80) DATST” value (DATST (jimsonweed); [5]) was 300 g/ha and the inhibition at 10 g/ha (SORVU (shattercane) [3]; Sorghum bicolor, PPI application, 10 g/ha, read-out: Percent inhibition SORVU) was 20%. The inhibition at 30 g/ha (SORVU (shattercane) [3]; Sorghum bicolor, PPI application, 30 g/ha, read-out: Percent inhibition SORVU) was 50%, the inhibition at 100 g/ha (SORVU (shattercane) [3]; Sorghum bicolor, PPI application, 100 g/ha, read-out: Percent inhibition SORVU) was 50% and the inhibition at 300 g/ha (SORVU (shattercane) [3]; Sorghum bicolor, PPI application, 300 g/ha, read-out: Percent inhibition SORVU) was 100%. For the same compound, the inhibition at 900 g/ha (SORVU (shattercane) [3]; Sorghum bicolor, PPI application, 900 g/ha, read-out: Percent inhibition SORVU) was 100%, the “PPI activity GR80, SORVU” value (SORVU (shattercane) [3]; [6]) was 100 g/ha and the inhibition at 10 g/ha (DIGSA (large crabgrass); Digitaria sanguinalis, PPI application, 10 g/ha, read-out: Percent inhibition DIGSA) was 20%. The inhibition at 30 g/ha (DIGSA (large crabgrass); Digitaria sanguinalis, PPI application, 30 g/ha, read-out: Percent inhibition DIGSA) was 80%, the inhibition at 100 g/ha (DIGSA (large crabgrass); Digitaria sanguinalis, PPI application, 100 g/ha, read-out: Percent inhibition DIGSA) was 80% and the inhibition at 300 g/ha (DIGSA (large crabgrass); Digitaria sanguinalis, PPI application, 300 g/ha, read-out: Percent inhibition DIGSA) was 100%. The inhibition at 900 g/ha (DIGSA (large crabgrass); Digitaria sanguinalis, PPI application, 900 g/ha, read-out: Percent inhibition DIGSA) was 100%, the “PPI activity GR80, DIGSA” value (DIGSA (large crabgrass); [6]) was 30 g/ha and the “PPI activity GR80, STEME” value (STEME (common chickweed)) was 100 g/ha. It also gave an inhibition at 10 g/ha ([4]; Aegilops cylindrica, weed, PPI application, 10 g/ha, read-out: Percent inhibition AEGCY) of 0%, an inhibition at 30 g/ha ([4]; Aegilops cylindrica, weed, PPI application, 30 g/ha, read-out: Percent inhibition AEGCY) of 0% and an inhibition at 100 g/ha ([4]; Aegilops cylindrica, weed, PPI application, 100 g/ha, read-out: Percent inhibition AEGCY) of 0%. The inhibition at 300 g/ha ([4]; Aegilops cylindrica, weed, PPI application, 300 g/ha, read-out: Percent inhibition AEGCY) was 20%, the inhibition at 900 g/ha ([4]; Aegilops cylindrica, weed, PPI application, 900 g/ha, read-out: Percent inhibition AEGCY) was 10% and the “PPI activity GR80, AEGCY” value [4, 6] was “* (activity observed, at least at highest rate, but <80% inhibition)”. It also gave an inhibition at 10 g/ha (POAAN (annual bluegrass); 10 g/ha) of 20%, an inhibition at 30 g/ha (POAAN (annual bluegrass); 30 g/ha) of 50% and an inhibition at 100 g/ha (POAAN (annual bluegrass); 100 g/ha) of 65%. It also gave an inhibition at 300 g/ha (POAAN (annual bluegrass); 300 g/ha) of 80%, an inhibition at 900 g/ha (POAAN (annual bluegrass); 900 g/ha) of 100% and an inhibition at 10 g/ha (oilseed rape (BRSNS); 10 g/ha) of 0%. It also gave an inhibition at 30 g/ha (oilseed rape (BRSNS); 30 g/ha) of 0%, an inhibition at 300 g/ha (oilseed rape (BRSNS); 300 g/ha) of 20% and an inhibition at 900 g/ha (oilseed rape (BRSNS); 900 g/ha) of 100%.
